What was measured:
[1] = UV light transmittance in a quartz plate (Australian Method); assay type: physicochemical; details: solution of 2.0 mg/cm^2 in a quartz plate, 320 to 360 nm
Experimental: In order to analyze the transmittance of UV light in the wavelength of 320 to 360 nm, solutions of 2.0 mg/cm^2 of the phenothiazines TR, TFP and FP were used in a quartz plate.
As it can be observed, in these conditions, TR, TFP and FP block the passage of almost 100% of UV light incidence (FIG. 1). This evaluation was obtained based on the Australian Method (Perassinoto, N. L., Journal In Comesto, VII Ed., 2006), which was elected the most adequate, because it considers the ε of UVA region of absorption. The other methods are based in the 320 and 360 nm absorption ratio and can generate false negative results. According to the Australian Method, it will be a good sunscreen the compound that blocks 90% of UVA light incidence. In the case of the said cation radicals of the phenothiazines of the present invention, the blockage was of 99.99%.
A solution of 2.0 mg of drug/cm^2 was submitted to an analytical assay in a quartz plate, in the wavelength range from 320 to 360 nm, in order to verify the area of UV light transmittance (FIG. 7).
This evaluation was performed based in the Australian Method (Perassinoto, N. L.; Journal In Comesto; VII edition; p. 06; 2006), which was elected the most adequate, because it considers the ε of UVA region of absorption. The other methods are based in the 360 and 320 nm absorption ratio and can generate false negative results. According to the Australian Method, it will be a good sunscreen the compound that blocks 90% of UVA light incidence.

[2] = Absorption bands of the cationic radicals; assay type: physicochemical; details: pre-micellic aggregates and micelles
[3] = tested on: methionine 80 of cytochrome c; assay: Photooxidation of model protein cytochrome c under UV irradiation, measured by dislocation to the blue of the Soret band; assay type: biochemical; details: pH=4.0, 120 min UV (without drug 406 nm)
Experimental: (§1) It was analyzed the effect of the concentration of the phenothiazine derived compounds of the present invention TR (graph A, FIG. 2) and TFP (graph B, FIG. 2), on the photooxidation of the model protein (methionine 80 of cytochrome c), measured by the degree of deviation to the blue of the Soret band.
(§2) The white circle, in A and B, represents the damage caused to the protein after two hours of irradiation under UV light at 254 nm, at temperature of 25° C., at pH 4.
(§3) The effect of the media pH on the initial velocity of oxidation of methionine 80 of cytochrome c was analyzed at an UV irradiation of 254 nm, during 120 min, in the absence and in the presence of the stabilized cation radicals of TR, TFP and FP (FIG. 3). In the presence of the stabilized cation radicals of TR, TFP and FP, de concentration range of 5 to 2500 μM for pH 4.0 and the concentration range of 25 to 2500 μM for the pH range of 3.0 to 7.0 were used.
(§4) Samples containing cytochrome c 3 μM and TR 25 μM were irradiated at 254 nm, in phosphate buffer 5 mM, pH=4.0, at […]., in a cuvette, at 4 cm from a UV lamp of 4 W. The spectrum of cytochrome c and of phenothiazine were obtained before the irradiation (fine solid line of FIG. 4) and after 60 and 120 min of irradiation (dotted line and thick solid line, respectively, of FIG. 4). The spectrum shown in the curves corresponds to the overlapping spectrum changes of the phenothiazines detected during the same indicated time points.
(§5) The experiment described in the Example 4 was repeated for different concentrations of phenothiazines. The initial rate of dislocation to the blue of the Soret band was defined regarding the concentration of phenothiazine.
(§6) The irradiation of the cytochrome c was performed during 120 min, pH=4.0 and under UV lamp of 4 W, which led to the dislocation to the blue of the Soret band from 409 to 406 nm, with initial rate of 0.42 ms^−1 (open circle, FIG. 5).
(§7) Irradiation of the cytochrome c 3 μM was performed, for a pH variation range from 3.0 to 7.0. In this pH range, the phenothiazine remained predominately protonated due to its pKa of 8.1. […] In the said pH range, the initial rate of dislocation to the blue of the Soret band was determined, after 120 min of UV irradiation, in the presence and in the absence of TR (FIG. 6).

[4] = target: methionine 80 of cytochrome c (Homo sapiens, UniProt P99999); assay: as above; assay type: biochemical; details: for initial rate of dislocation to the blue of the Soret band: pH=4.0, 120 min UV (without drug 0.42); for effect on damage to cytochrome c: stabilized cation radicals 25 μM
Experimental: as §1, §2, §3, §4, §5, §6, §7

[5] = two hours UV 254 nm, 25° C., pH 4

Chain of methionine 80 of cytochrome c (Homo sapiens, UniProt P99999) (P99999 whole entry): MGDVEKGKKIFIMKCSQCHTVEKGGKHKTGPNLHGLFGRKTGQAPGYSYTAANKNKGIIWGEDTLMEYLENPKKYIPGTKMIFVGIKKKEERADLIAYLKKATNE
Chain of methionine 80 of cytochrome c (P99999 whole entry): as above

SMILES | blockage of the passage of UV light incidence [1] [%] | absorption band of the cationic radical [2] [nm] | Soret band after irradiation ([3]; drug 25 μM) [nm] | Soret band after irradiation ([3]; drug 2500 μM) [nm] | effect on rate of dislocation to the blue of the Soret band ([4]; 25 μM, pH range from 5.0 to 7.0, 120 min UV) | increase of the initial rate of dislocation to the blue ([4]; 25 μM, pH=3.0) [%] | increase of the initial rate of dislocation to the blue ([4]; 25 μM, pH=4.0) [%] | effect on dislocation rate to the blue ([4]; drug 5 μM, pH=4.0, 120 min UV) | initial rate of dislocation to the blue of the Soret band ([4]; drug 25 μM) [ms^−1] | initial rate of dislocation to the blue of the Soret band ([4]; drug 2500 μM) [ms^−1] | reduction of the initial rate of dislocation to the blue of the Soret band ([4]; high concentrations, pH=4.0) | effect on damage to cytochrome c ([4]; pH range from 5.0 to 3.0) | effect on damage to cytochrome c ([4]; pH range from 5.0 to 7.0) | concentration up to which increasing drug exacerbated the damage (maximum damage) [4, 5] [µM] | effect on photooxidation damage of cytochrome c at very low concentrations [4, 5]
CN1CCN(CCCN2c3ccccc3Sc3ccc(C(F)(F)F)cc32)CC1 [TFP, 10-[3-(4-methylpiperazin-1-yl)propyl]-2-(trifluoromethyl)-10H-phenothiazine] | ~100 | 520 | – | – | – | – | – | – | – | – | – | – | – | – | –
CSc1ccc2c(c1)N(CCC1CCCCN1C)c1ccccc1S2 (stereo not drawn) [TR, 10-[2-(1-methyl-2-piperidyl)ethyl]-2-methylsulfanyl-phenothiazine] | ~100 | 615 | 405 | 407 | slight reduction | 250 | ~50 | discrete reduction | 0.6 | 0.23 | around 50% | progressively increased the damage | slightly protected | 25 | slight protection
OCCN1CCN(CCCN2c3ccccc3Sc3ccc(C(F)(F)F)cc32)CC1 [FP, 2-[4-[3-[2-(trifluoromethyl)-10H-phenothiazin-10-yl]propyl]piperazin-1-yl]ethanol] | ~100 | 520 | – | – | – | – | – | – | – | – | – | – | – | 10 | –
c1ccc2c(c1)Nc1ccccc1S2 [PHT, 10H-phenothiazine] | ~100 | – | – | – | – | – | – | – | – | – | – | – | – | – | –

From US20110223221A1, “STABILIZATION PROCESSES OF CATION RADICALS OF PHENOTHIAZINIC COMPOUNDS, COSMECEUTICAL FORMULATIONS AND METHODS FOR SKIN DISEASES AND DISTURBANCES PREVENTION” (priority 2008, published 2011)
